# Source: a melting point compilation (Tetko et al.; mined from patent text by program, amines drawn as free bases though some values may be those of a salt)
row,melting point [°C],Structure (SMILES)
1,97 to 99,Nc1ccc(C(O)c2ccccn2)c(OCC(F)(F)F)c1 (stereo unspecified)
2,98 to 99,CN(C)OC(=O)C(C)(c1ccc(OCc2ccc3ccccc3n2)cc1)C1CCCCC1 (stereo unspecified)
3,143 to 145,CC(Oc1ncn(-c2cccc(Cl)c2)n1)C(N)=O (stereo unspecified)
4,120 to 121,CCCCOc1ccc(C[C@H](NC(=O)[C@H]2CC[C@H](C(C)C)CC2)C(=O)O)cc1
5,134 to 135,Cc1oc(-c2ccccc2)nc1COc1ccc(/C=C/CO)cc1
6,82,OCC1COC(c2c(F)cccc2F)=N1 (stereo unspecified)
7,111,CCC(=O)NCC1Cc2cccc3cccc1c23 (stereo unspecified)
8,115 to 117,CCOCCOc1cc(C(C)C)c(NC(=O)CN2CCN(CCCSc3nc4ccccc4o3)CC2)c(C(C)C)c1
9,216 to 218,OCCN1CCN(c2ccc3nc(-c4ccc(Cl)s4)c(-c4ccncc4)n3n2)CC1
10,115 to 116,CCCC[C@H](NC(=O)[C@@H](NC(=O)OCc1ccccc1)C(C)C)C(=O)CSCc1ccco1
11,225,Cc1nn(CC(=O)c2ccc(Cl)cc2)c(=O)n1-c1ccc(N2CCN(c3ncc(O)cn3)CC2)cc1
12,77 to 78,CCOC(=O)c1cc2cc(-c3ccc(OC(F)(F)F)cc3)ccc2n1Cc1ccc(C)cc1
13,212 to 213,CC(=O)ONC(=N)c1ccc(-c2ccc(-c3ccc(C(=N)NOC(C)=O)o3)o2)cc1
14,164,Clc1cccnc1-c1ccc2[nH]nc(Nc3ccccn3)c2c1
15,179 to 181,Cc1cc(=O)n(C)c2[nH]n(-c3ccccc3)c(=O)c12
16,88 to 90,C=CC(=O)NCCCCCC(=O)O
17,71 to 73,CCOC(=O)COc1c(C)cc(C)c2c1CC(Br)C2=O (stereo unspecified)
18,95 to 99,C#CCOC(=O)N(I)C(C)C(=O)O (stereo unspecified)
19,183 to 185,CC(=O)NCc1ccc2c(c1)CN(C1CCC(=O)NC1=O)C2=O (stereo unspecified)
20,99,S=S1N=C2SCSC2=N1
21,120 to 121,O=C(N[C@H]1C(=O)N[C@@H]1CCO)OCc1ccccc1
22,132 to 134,Cc1nc2n(c1CC#N)CCCC2OCc1ccccc1 (stereo unspecified)
23,106 to 108,C=CCO/N=C(/C(=O)O)c1ccc(OCCOc2ccc3ccccc3c2)s1
24,40 to 42,CC1(C)CC(CCCCNc2nc(Cl)nc(NCCCCC3CC(C)(C)NC(C)(C)C3)n2)CC(C)(C)N1

row,melting point [°C],Structure (SMILES)
1,209 to 211,O=S1(=O)N=CN(C2CCCCC2)c2ccc(Cl)cc21
2,180 to 183,O=[N+]([O-])c1ccc(-n2nc(-c3ccccc3O)nc2-c2ccccc2O)cc1
3,166,CNC(=O)n1cc(F)cnc1=O
4,207 to 210,Cc1ccc(Nc2nc(=O)cc(N)n2-c2ccccc2)cc1
5,174 to 176,CN(C)C(=O)Cc1c(-c2ccc(Cl)cc2)nn2cccnc12
6,83,COc1cccc(C=C2c3ccccc3CCc3ccccc32)c1
7,150 to 151,CC(C)(Oc1ccc(CCC(=O)c2ccc(-c3ccc(C(F)(F)F)cc3)s2)cc1F)C(=O)O
8,62 to 64,COC(=O)[C@@H]1CCCN1C(=O)C[C@H]1CCc2ccccc2C1
9,171 to 172,COc1ccc(-c2ccc(C(=O)Nc3ccc4cc(CN5CCCCCC5)cnc4c3C)c(F)c2)cc1
10,98 to 101,C[C@@H]1CSC(=O)[C@@H]2CCCN2C1=O
11,109 to 112,COc1cc2nc(SCc3nccc(N4CCOCC4)c3Cl)[nH]c2cc1OC
12,264 to 268,COc1cccc(Cc2ccc(-c3cnn4c(O)ncnc34)cc2)c1
13,110 to 111,CC(C)(C)OC(=O)NCc1ccc([N+](=O)[O-])cc1
14,63 to 66,CCCCN(CCCC)CCCOc1ccc(-c2cn3cccc(C)c3n2)cc1C
15,337 to 340,Nc1nc(N)nc(Cc2nc3ccccc3n2-c2ccccc2)n1
16,244 to 247,Cc1c(OCC(=O)O)ccc2c(=O)c3ccccc3oc12
17,152 to 155,COC(=O)CC1Cc2ccc(OC)cc2NC1=O (stereo unspecified)
18,89 to 90,CC(C)(C)C(O)(COc1ccc(F)cc1)C(F)n1cncn1 (stereo unspecified)
19,115 to 118,CSc1nc(Cl)c2sccc2n1
20,129 to 131,COC(=O)c1ccc2c(c1)ncn2-c1ccc(OC)c(C2CCCC2)c1
21,131 to 133,O=C(O)c1cc(OCCCCCCOc2ccc(-c3ccccc3)cc2)ccc1OCc1ccccc1
22,138 to 140,CCOC(=O)CCCOc1c(Br)cc(Br)c(C(N)=O)c1Br
23,97 to 99,c1ccc(CSCC2CCn3c(nc4ccccc43)S2)cc1 (stereo unspecified)
24,142 to 143,CC(C(=O)O)c1ccc2c(c1)C(=O)Cc1ccc(Cl)cc1S2 (stereo unspecified)

row,melting point [°C],Structure (SMILES)
1,61 to 62,CC(=O)NCc1ccc(C(C)O)cc1 (stereo unspecified)
2,191,CC(C)(C)C(=O)Oc1cccc2c1C(=O)c1c(OC(=O)C(C)(C)C)cccc1C2C(=O)c1ccccc1
3,75 to 77,CC(C)Nc1nccc(C(=O)C(=O)c2ccc(F)cc2)n1
4,188 to 190,CC1(C)C(=O)N(c2ccc(C#N)c(C(F)(F)F)c2)C(=O)N1CC=CCN1C(=O)N(c2ccc(C#N)c(C(F)(F)F)c2)C(=O)C1(C)C
5,220 to 222,O=C(Nc1ccccc1)OCC1(COC(=O)Nc2ccccc2)CS(=O)c2ccccc2C1=O (stereo unspecified)
6,213 to 215,O=C(Nc1ccc2c(c1)OC(F)(F)O2)NC12CC3CC(CC(C3)C1)C2
7,98 to 100,CN1C(=O)C(c2cc[nH]c2)(c2cccc(OCc3ccccc3)c2)N=C1N (stereo unspecified)
8,152 to 153,CCN1CCNC(=O)C1c1ccc(Nc2nc(Br)cn(CC)c2=O)cc1 (stereo unspecified)
9,122 to 124,CCCCC(Cc1ccc(OCCNC(=O)c2ccc(-c3ccc(C=O)cc3)cc2)cc1)C(=O)O (stereo unspecified)
10,162 to 163,CC(C)(C)C(O)c1ccc(C(=O)O)cc1 (stereo unspecified)
11,118 to 119,C=CCc1cc2c(c(CC=C)c1O)CCC(=O)N2
12,236 to 238,Cc1nc2c(N)nc3ccccc3c2n1CCCNS(C)(=O)=O
13,118 to 119,CC(C)(C)CN1C(=O)C2CC2(c2ccc(N)cc2)C1=O (stereo unspecified)
14,46 to 54,CC(CN1C(=O)C2(COc3cc4c(cc32)CCO4)c2ccccc21)OCc1ccccn1 (stereo unspecified)
15,210,Cc1cn(C)c2ccc(NC(=O)Nc3cccnc3)cc12
16,206 to 212,CC(=O)ON1C(C)(C)CC(OC(=O)c2ccc(C(=O)OC3CC(C)(C)N(OC(C)=O)C(C)(C)C3)cc2)CC1(C)C
17,142 to 148,CCOC(=O)CCCOc1cccc(-c2n[nH]c3c2Cc2ccccc2-3)c1
18,> 340,NC(=O)c1cnc2c(cc([N+](=O)[O-])c3nncc32)c(-c2ccccc2Cl)n1
19,211 to 212,CNC(=O)N1CCC(=NO)c2cc(Cl)ccc21
20,129 to 130,O=c1c2ccccc2oc2cccn12
21,155 to 156,CCCCCOc1ccc(C(=O)NCCCCCCCNC(=O)c2ccc(OCCCCC)cc2)cc1
22,160 to 161,CSc1ccc(Cc2sc(NC(C)=O)nc2CCc2ccc(NC(=N)N)cc2)cc1
23,219,COc1nc2cc(C)c(C)c(NS(C)(=O)=O)c2nc1OC
24,101 to 104,Cc1ncccc1C(C#N)N1CCN(C(=O)CC(NC(=O)c2cccc(OCc3ccc4ccccc4n3)c2)c2ccccc2)CC1 (stereo unspecified)

row,melting point [°C],Structure (SMILES)
1,98 to 100,CCOC(=O)c1sc2cc(OCc3ccccc3)ccc2c1Cl
2,68 to 70,OCc1ccccc1-c1cc(-c2ccccc2)on1
3,150,Cc1c2c(nc3ccccc13)CCN(C(=O)Oc1ccccc1)CC2
4,258 to 260,CCS(=O)(=O)Nc1cccc2c1N=C(c1ccc(-n3c(C)nc4cnccc43)cc1)CC(=O)N2
5,194 to 195,O=c1c(CCCc2cnccn2)cc2cccnc2n1-c1cccc([N+](=O)[O-])c1
6,35,Cc1ccc(OC(F)C(F)(F)F)c([N+](=O)[O-])c1[N+](=O)[O-] (stereo unspecified)
7,180 to 181,O=C(Cc1ccc(-c2cccc(F)c2)cc1)Nc1n[nH]c2c1CCC2
8,128 to 129,CC(C)c1nccn1Cc1ccc2c(c1)-c1[nH]nc(-c3ccsc3)c1C2
9,305 to 307,Nc1c(-c2cc(Cl)ccc2O)c2cc(Cl)c(Cl)cc2[nH]c1=O
10,88 to 91,CCCCCCCCCc1ccc(C(Sc2cccc(NC(=O)CC(=O)O)c2)C(=O)CCCC(=O)O)cc1 (stereo unspecified)
11,61 to 62,Cc1c(C)c2c(c(C)c1C=O)CC(C)(C)C2
12,144 to 145,COc1cc(COc2nn(-c3ccccc3)cc2/C=C/c2cncn2C)ccc1OCc1nc(-c2ccco2)oc1C
13,106,O=C1c2cc3c(cc2CCC1Br)OCC3 (stereo unspecified)
14,136 to 138,Cc1ccnc(SCc2nccc(SCCCSc3ccc4ncc([N+](=O)[O-])n4n3)c2C)n1
15,91 to 92,CONC(=O)c1cc(OC)cc(Oc2cccc(C(F)(F)F)c2)n1
16,214 to 232,CC1(C)CC(=O)Nc2cc3nc(-c4ccc(CO)cc4)[nH]c3cc21
17,212 to 215,Cc1cccc(Nc2cc(Nc3ccc(OCC(N)=O)cc3)ncn2)c1
18,188 to 190,N#Cc1c(C(=Nc2ccccc2)c2ccccc2)n(O)c2ccccc12
19,63 to 66.5,Nc1ccc(Sc2ccccc2)cc1C(F)(F)F
20,288 to 292,COc1ccc(Cn2ncc3nc(O)nc(O)c32)cc1
21,143 to 144,O=C(Cc1ccc(C(F)(F)F)cc1)c1ccccc1
22,139 to 144,CCCCc1nc(C(C)(C)O)c(C(=O)OCOC(=O)C(C)(C)C)n1Cc1ccc(-c2ccccc2C(=O)O)cc1

row,Structure (SMILES),melting point [°C]
1,COc1ccccc1C(=O)CN1C(=O)C(NC(=O)Nc2cccc(-c3nnn[nH]3)c2)N=C(c2ccccc2F)c2cccc(C)c21 (stereo unspecified),194 to 195
2,CN1CCCC(O)(c2cccc3c2ccn3C)C1 (stereo unspecified),90
3,CCCCCCc1cc2c(s1)-n1c(C)nnc1CN=C2c1ccc(C)c(C)c1,98 to 100
4,Cc1cc(C)c2cc(C3CCNC(C)C3)sc2c1 (stereo unspecified),52 to 57
5,CCCCN[C@@H]1CN(CC)C[C@H]1O (relative stereo),57.5 to 59
6,[N-]=[N+]=N[C@H]1C[C@H](C(=O)O)C1,39 to 41
7,CN1CC(=O)N(SC(Cl)(Cl)Cl)C1=O,110 to 112
